How the values were obtained:
[1] = system: HIV-192UG029 (subtype A, X4); experiment: p24 production inhibition in PHA-PBMC; type: cell-based, HIV-1; conditions: Human immunodeficiency virus 1, read-out: EC50 HIV-192UG029 (subtype A, X4)
Experimental: (§1) The susceptibility of HIV-1LAI or HIV-2ROD to various compounds was determined as previously described[20]–[22]. Briefly, MT-2 cells (10^4/ml) were exposed to 100 TCID50 of HIV-1LAI or HIV-2ROD in the presence or absence of various concentrations of compounds in 96-well plates and were incubated at 37 °C for 7 days. After incubation, 100 μl of the medium was removed from each well, 3-(4,5-dimetylthiazol-2-yl)-2,5-diphenyltetrazolium bromide (MTT) solution (10 μl, 7.5 mg/ml in PBS) was added to each well, followed by incubation at 37 °C for 2 h. […] To determine the sensitivity of clinically isolated HIV-1s to compounds, PHA-PBMC (10^6/ml) were exposed to 50 TCID50 of each HIV-1 and cultured in the presence or absence of various concentrations of compounds in 10-fold serial dilutions in 96-well plates. In determining the drug-susceptibility of certain laboratory HIV-1 strains, MT-4 cells were employed as target cells as previously described[23],[24]. MT-4 cells (10^5/ml) were exposed to 100 TCID50 of drug-resistant HIV-1s in the presence or absence of various concentrations of compounds and were incubated at 37 °C. On day 7, the supernatants were harvested and the amounts of p24 were determined by using a fully-automated chemiluminescent enzyme immunoassay system (Lumipulse f: Fujirebio, Tokyo)[35]–[37]. […] All assays were performed in duplicate, and EC50 shown in this report represent average values of two to four independent experiments. PHA-PBMCs were derived from a single donor in each independent experiment. The research protocols described in the present study were carried out in accordance with relevant guidelines and regulations, and were approved in Ethics Committee for Epidemiological and General Research at the Faculty of Life Sciences, Kumamoto University.

HIV-1MDRmix DRV ^R 20P = experiment: p24 production inhibition in PHA-PBMC; type: cell-based
Experimental: as §1

HIV-1BaL (subtype B, R5) = experiment: p24 production inhibition in PHA-PBMC; type: cell-based; conditions: Human immunodeficiency virus 1, PHA-PBMC, p24 Gag production
Experimental: as §1

HIV-1MDR/G = experiment: p24 production inhibition in PHA-PBMC; type: cell-based
Experimental: as §1

HIV-1MDR/C = experiment: p24 production inhibition in PHA-PBMC; type: cell-based
Experimental: as §1

HIV-1MDR/B = experiment: p24 production inhibition in PHA-PBMC; type: cell-based
Experimental: as §1

[2] = system: HIV-1ME46 (subtype B, X4/R5); experiment: p24 production inhibition in PHA-PBMC; type: cell-based; conditions: Human immunodeficiency virus 1, PHA-PBMC, p24 Gag production
Experimental: as §1

[3] = system: HIV-1ERS104pre (wild-type); experiment: p24 production inhibition in PHA-PBMC; type: cell-based; conditions: Human immunodeficiency virus 1, PHA-PBMC, p24 Gag production
Experimental: as §1

HIV-1MDR/TM = experiment: p24 production inhibition in PHA-PBMC; type: cell-based
Experimental: as §1

HIV-1_9510 ^R P36 = experiment: Viral growth kinetics in MT-4 cells (p24); type: cell-based
Experimental: (§2) The GRL-09510-resistant variant at passage 36 was propagated in fresh MT-4 cells without GRL-09510 for 7 days, and aliquoted HIV-1_9510 ^R P36 viral stocks were stored at −80 °C. MT-4 cells (3.2 × 10^5) were exposed to the HIV-1_9510 ^R P36 or wild-type HIV-1NL4-3 preparation containing 10 ng/ml p24 in 6-well plates for 3 hours, and the infected MT-4 cells were washed with fresh medium, divided into 4 fractions and each cultured with or without GRL-09510 (final concentration of MT-4 cells 10^4/ml, and drug concentrations 0, 0.01, 0.1 and 1 μΜ). The amounts of p24 were measured every two days for up to 7 days.

HIV-1NL4-3 = experiment: Viral growth kinetics in MT-4 cells (p24); type: cell-based; conditions: as low as 0.01 µM, 7 days
Experimental: as §2

HIVMDR strains = experiment: p24 production inhibition in PHA-PBMC, summary over HIVMDR strains; type: cell-based, HIV-1; conditions: Human immunodeficiency virus 1, range over clinical HIVMDR isolates, read-out: EC50 values against HIVMDR
Experimental: (§3) The susceptibility of HIV-1LAI or HIV-2ROD to various compounds was determined as previously described[20]–[22]. Briefly, MT-2 cells (10^4/ml) were exposed to 100 TCID50 of HIV-1LAI or HIV-2ROD in the presence or absence of various concentrations of compounds in 96-well plates and were incubated at 37 °C for 7 days. After incubation, 100 μl of the medium was removed from each well, 3-(4,5-dimetylthiazol-2-yl)-2,5-diphenyltetrazolium bromide (MTT) solution (10 μl, 7.5 mg/ml in PBS) was added to each well, followed by incubation at 37 °C for 2 h. […] To determine the sensitivity of clinically isolated HIV-1s to compounds, PHA-PBMC (10^6/ml) were exposed to 50 TCID50 of each HIV-1 and cultured in the presence or absence of various concentrations of compounds in 10-fold serial dilutions in 96-well plates. In determining the drug-susceptibility of certain laboratory HIV-1 strains, MT-4 cells were employed as target cells as previously described[23],[24]. MT-4 cells (10^5/ml) were exposed to 100 TCID50 of drug-resistant HIV-1s in the presence or absence of various concentrations of compounds and were incubated at 37 °C. On day 7, the supernatants were harvested and the amounts of p24 were determined by using a fully-automated chemiluminescent enzyme immunoassay system (Lumipulse f: Fujirebio, Tokyo)[35]–[37]. […]

[4] = Cytotoxicity against MT-2 cells (MTT assay); type: cell-based; conditions: human
Experimental: as §1

HIV-1I84V = experiment: p24 assay in MT-4 cells, recombinant clone; type: cell-based; conditions: Human immunodeficiency virus 1, MT4
Experimental: as §1
(§4) To generate HIV-1 clones carrying the desired AA substitutions, site-directed mutagenesis was performed with a QuikChange site-directed mutagenesis kit (Stratagene, La Jolla, CA), and the AA substitution-containing genomic fragments were introduced into pHIV-1NL4-3Sma, which had been created to have a SmaI site by changing two nucleotides (2590 and 2593) of pHIV-1NL4-3.

HIV-1T91A = experiment: p24 assay in MT-4 cells, recombinant clone; type: cell-based; conditions: Human immunodeficiency virus 1, MT4
Experimental: as §1, §4

HIV-1L10F = experiment: p24 assay in MT-4 cells, recombinant clone; type: cell-based; conditions: Human immunodeficiency virus 1, MT4
Experimental: as §1, §4

HIV-1I47V = experiment: p24 assay in MT-4 cells, recombinant clone; type: cell-based; conditions: Human immunodeficiency virus 1, MT4
Experimental: as §1, §4

[5] = system: HIV-1NL4-3 variants selected with ATV, LPV and APV; experiment: p24 assay in MT-4 cells, summary over PI-selected variants; type: cell-based
Experimental: as §3

HIV-1LPV ^R 5μM = experiment: p24 production inhibition in MT-4 cells; type: cell-based
Experimental: as §1

HIV-2ROD = experiment: microbe, parasite or virus in culture; type: cell-based
Experimental: as §1

HIV-1LAI = experiment: microbe, parasite or virus in culture; type: cell-based
Experimental: as §1

[6] = compared to EC50 for HIV-1ERS104pre
[7] = compared to HIV-1WT/ERS104pre, Supplemental Table 4

For `COc1ccc(S(=O)(=O)N(CC(C)C)CC(O)C(Cc2ccccc2)NC(=O)OC2C3COC4OCC2C4C3)cc1` (stereo not shown) [GRL-09510], the EC50 [1] was 2.7 ± 0.1 nM, the “fold more effective than DRV against HIV-1DRV ^R 20P” value (HIV-1MDRmix DRV ^R 20P; PHA-PBMC, p24) was 12 fold and the “fold change of EC50 HIV-1MDRmix DRV ^R 20P” value (HIV-1MDRmix DRV ^R 20P; [6]) was 7. For the same compound, the “fold change in EC50 HIV-1MDRmixDRVR20P” value (HIV-1MDRmix DRV ^R 20P; [7]) was 7, the EC50 (HIV-1MDRmix DRV ^R 20P; read-out: EC50 HIV-1MDRmix DRV ^R 20P, PHA-PBMC, p24 Gag production) was 25 ± 1 nM and the EC50 (HIV-1BaL (subtype B, R5)) was 3.1 ± 0.4 nM. For the same compound, the EC50 (HIV-1MDR/G; PHA-PBMC, p24 Gag production) was 3.3 ± 1.4 nM, the “fold change of EC50 HIV-1MDR/G” value (HIV-1MDR/G; [6]) was 1 and the “fold change in EC50 HIV-1MDR/G” value (HIV-1MDR/G; [7]) was 1. For the same compound, the EC50 (HIV-1MDR/C; Human immunodeficiency virus 1, PHA-PBMC, p24 Gag production) was 3.2 ± 0.6 nM, the “fold change of EC50 HIV-1MDR/C” value (HIV-1MDR/C; [6]) was 1 and the EC50 (HIV-1MDR/B; PHA-PBMC, p24 Gag production) was 3.7 ± 0.1 nM. The “fold change of EC50 HIV-1MDR/B” value (HIV-1MDR/B; [6]) was 1, the EC50 [2] was 1.2 ± 0.2 nM and the EC50 [3] was 3.5 ± 0.1 nM. The EC50 (HIV-1MDR/TM; PHA-PBMC, p24 Gag production) was 4 ± 0.6 nM, the “fold change of EC50 HIV-1MDR/TM” value (HIV-1MDR/TM; [6]) was 1 and the “replication of HIV-1_9510 ^R P36 in the presence of drug” value (HIV-1_9510 ^R P36; 1 µM) was “completely suppressed”. For the same compound, the “growth of HIV-1_9510 ^R P36 in the presence of drug” value (HIV-1_9510 ^R P36; 0.01 and 0.1 µM, 7-day culture) was “propagated”, the “growth of HIV-1NL4-3 in the presence of drug” value (HIV-1NL4-3) was “failed to grow” and the EC50 (HIVMDR strains) was 3.2 to 4 nM. It also gave a CC50 [4] of 39000 ± 700 nM, an EC50 (HIV-1I84V) of 3.3 ± 0.3 nM and an EC50 (HIV-1T91A) of 3.3 ± 0.4 nM. It also gave an EC50 (HIV-1L10F) of 4.4 ± 0.2 nM, an EC50 (HIV-1I47V) of 3.6 ± 0.5 nM and an EC50 ([5]; Human immunodeficiency virus 1, MT4, MT-4 cells, variants selected with up to 5 µM ATV, LPV, APV, read-out: EC50 against PI-selected HIV-1NL4-3 variants) of 3.7 to 4.8 nM. For the same compound, the “fold-differences of EC50 against PI-selected variants” value ([5]; compared to against HIV-1NL4-3) was 1~2, the “fold change of EC50 HIV-1LPV ^R 5μM” value (HIV-1LPV ^R 5μM; number in parentheses, compared to HIV-1NL4-3) was 1 and the EC50 (HIV-1LPV ^R 5μM; read-out: EC50 HIV-1LPV ^R 5μM, MT-4 cells, p24 Gag production) was 3.9 ± 0.5 nM. The EC50 (HIV-2ROD; MT-2 cells, 100 TCID50, MTT assay, read-out: EC50 Against HIV-2ROD) was 1.8 ± 0.1 nM, the “Selectivity Index (CC50/EC50) MT2/HIV-2ROD” value (HIV-2ROD; ratio of CC50 to EC50 against HIV-2ROD) was 21,667 and the EC50 (HIV-1LAI; Human immunodeficiency virus 1, MT2, MT-2 cells, 100 TCID50, MTT assay, read-out: EC50 Against HIV-1LAI) was 1.4 ± 0.9 nM. For the same compound, the “Selectivity Index (CC50/EC50) MT2/HIV-1LAI” value (HIV-1LAI; ratio of CC50 to EC50 against HIV-1LAI) was 27,857.
